Results published in US6703011B2, “Application of film forming technology to fragrance control release systems; and resultant fragrance control release systems” (International Flavors & Fragrances Inc., priority 1998, dated 2004).
Counter-ions that a name gives are not always drawn.

Assays:
[1] = vapor pressure of fragrance components
[2] = FRAGRANCE PERMEATION TEST (diffusion cell, weight loss); type: physicochemical; settings: for permeation rate through hydroxypropyl cellulose / permeation rate through polyvinyl alcohol: 35° C., film thickness about 150 microns; for permeation rate through polyvinyl alcohol: FIG. 5C (98% hydrolyzed polyvinyl acetate)
From the text: Referring to FIGS. 4A and 4B, fluid 46 is located in jar 44. Jar 44 has sidearm 45. The fluid 46 reaches fluid level 47. Directly in line with fluid level 47 is membrane 41. The diffusion membrane 41 is held in place with flanges 43 and jar lip 42, using bolts 401a and 401b which secures the flange in place. The sidearm 45 is closed using closure 49. The permeability apparatus is shown using reference numeral 40. The FRAGRANCE PERMEABILITY TEST is based on the use of the apparatus of FIGS. 4A and 4B. The weight of membrane 41 is taken, initially, before being placed within the flange 43 and the jar lip 42. Substance 46 for which the permeability is to be measured is placed into jar 44 to fluid level 47. The apparatus containing fluid 46 remains in place for a fixed period of time. At the end of that period of time, bolts 401a and 401b as well as 401c are loosened, the flange 43 removed and membrane 41 is removed and weighed, thereby gathering sufficient data to determine the permeability of the particular substance 46. The design and development of fragrance controlled release systems is built upon an understanding of the transport mechanisms of aroma chemicals and fragrances through polymers. The ability of the film forming polymers to sustain fragrance release was determined by permeation studies. A special diffusion cell has been developed to measure the steady state permeation of aroma chemicals and fragrances through polymeric films using weight loss. […] The polymeric film is mounted on the diffusion cell and is tightly secured by a glass ring fitted with three screws. […] The diffusant (fragrances, single or mixture of aroma chemicals) is kept in contact with the polymer film throughout the experiment period by filling the diffusion cell arm with the diffusant. The permeation rate of the diffusant is determined by monitoring the changes in the diffusion cell weight. The permeability coefficient, or permeability P, is useful in describing the rate of mass transport through a polymer at steady state. Permeability is related to two basic properties: diffusion and solubility. The permeability coefficient can be expressed by the diffusion coefficient (D) and the solubility coefficient (S). Their relationship is described by the following equation: This value is the actual weight loss that is being measured during our experiments. […] P=DS and the use of neat material (not dilution in a solvent), one can then solve the equation to determine the permeability coefficient using the cell dimension (surface area, A), the thickness of the film (L) and the weight loss data (Q=dM/dt): [formula] The effect of fragrance physical and chemical properties on its permeation rate through the film forming polymers was studied using the experimental setup described, supra. FIG. 5B, described in detail, supra, presents the effect of log10P on the permeation rate of the two model aroma chemicals through hydroxypropyl cellulose. The permeation studies were carried out at 35° C., and the temperature was kept constant within ±0.5 C. throughout the experiment period. […] The aroma chemicals studied, ethyl […] β-pinene, have approximately the same values of vapor pressure, but differ in their solubility in water. Ethyl […] lower value of log10P and thus is more water soluble than β-pinene. The permeation rates on two model aroma chemicals having a high and low log10P through a polyvinyl alcohol, having crystalline and better packed structure, were also studied and are illustrated in FIG. 5C, described in detail, supra. The permeation studies were carried out at 35° C., and the temperature was kept constant within +0.5° C. throughout the experiment period. […] The aroma chemicals studied, ethyl […] β-pinene, have about the same values of vapor pressure, but differ in their solubility in water. Ethyl […] lower value of log10P and thus is more water soluble than β-pinene.

[3] = evaporation rate of aroma chemical without the polymer; type: physicochemical; settings: 35° C.
Protocol: The effect of fragrance physical and chemical properties on its permeation rate through the film forming polymers was studied using the experimental setup described, supra. FIG. 5B, described in detail, supra, presents the effect of log10P on the permeation rate of the two model aroma chemicals through hydroxypropyl cellulose. The permeation studies were carried out at 35° C., and the temperature was kept constant within ±0.5 C. throughout the experiment period. The thickness of the films studied was about 150 microns. The aroma chemicals studied, ethyl […] β-pinene, have approximately the same values of vapor pressure, but differ in their solubility in water. Ethyl […] lower value of log10P and thus is more water soluble than β-pinene. The permeation rates on two model aroma chemicals having a high and low log10P through a polyvinyl alcohol, having crystalline and better packed structure, were also studied and are illustrated in FIG. 5C, described in detail, supra. The permeation studies were carried out at 35° C., and the temperature was kept constant within +0.5° C. throughout the experiment period. The thickness of the films studied was about 150 microns. The aroma chemicals studied, ethyl […] β-pinene, have about the same values of vapor pressure, but differ in their solubility in water. Ethyl […] lower value of log10P and thus is more water soluble than β-pinene.

[4] = polymer film material: carboxymethyl cellulose
[5] = polymer film material: polyvinyl alcohol (74% hydrolyzed)
[6] = polymer film material: polyvinyl alcohol (98% hydrolyzed)

Vapor Pressure ([1]; at 25° C.) | Compound | also measured
0.3 mm/Hg | CC1=CC(C)C(C=O)CC1 (stereo not drawn) | –
0.09 mm/Hg | CC(=O)O[C@@H]1C[C@H]2CC[C@]1(C)C2(C)C (racemic) [isobornyl acetate] | –
– | CC(OC=O)C1CCCC(C)(C)C1 (stereo not drawn) [C.P. FORMATE®, the formic acid ester of 1,1-dimethyl-3(1-hydroxyethyl)cyclohexane, reference compound] | Vapor Pressure ([1]; figure legends, unit inferred): 0.1 mmHg; Permeation ([2]; polymer film material: hydroxypropyl cellulose (molecular weight = 100,000)): 2.5 × 10^−4 mg-mm thickness/cm^2 area - mi
0.02 mm/Hg | CC1(C)C2CCC1(C)C(O)C2 (stereo not drawn) [Example 1-borneol, 1-borneol] | –
0.002 mm/Hg | CC(=O)C1(C)CC2=C(CCCC2(C)C)CC1C (stereo not drawn) [ISO E SUPER ®] | –
0.003 mm/Hg | CC(C=O)Cc1ccc(C(C)(C)C)cc1 (stereo not drawn) [LILIAL ®] | –
0.03 mm/Hg | CC(=O)OC1CCC(C(C)(C)C)CC1 (stereo not drawn) [VERTENEX ® HC] | –
0.07 mm/Hg | C=CCOC(=O)COCCC(C)C [allyl amyl glycolate] | –
0.1 mm/Hg | CC(=O)OCc1ccccc1 [benzyl acetate] | –
0.1 mm/Hg | CC12CCC(CC1=O)C2(C)C (stereo not drawn) [camphor] | –
2.0 mm/Hg | CC/C=C\CCOC(C)=O [cis-3-hexenyl acetate] | –
0.0008 mm/Hg | CC/C=C\CCOC(=O)c1ccccc1O [cis-3-hexenyl salicylate] | –
0.009 mm/Hg | CC(C)=CCCC(C)CCO (stereo not drawn) [citronellol] | –
0.004 mm/Hg | CC(C=O)Cc1ccc(C(C)C)cc1 (stereo not drawn) [cyclamal] | –
0.09 mm/Hg | C=CC(C)CCCC(C)(C)O (stereo not drawn) [dihydromyrcenol] | –
– | C/C=C(\C)C(=O)OCC [ethyl tiglate] | Vapor Pressure ([1]; figure legends, unit inferred): 1.8 mmHg; permeation rate through hydroxypropyl cellulose [2]: exactly the same as its evaporation rate without the polymer; permeation rate through polyvinyl alcohol [2]: about 1.8×10^−4; permeation rate through hydroxypropyl cellulose ([2]; listed as Ethyl tiglate): equal to its evaporation rate; Permeation [2, 4]: 2.8 × 10^−3 mg-mm thickness/cm^2 area - mi; Permeation [2, 5]: 5 × 10^−3 mg-mm thickness/cm^2 area - mi; Permeation [2, 6]: 2 × 10^−3 mg-mm thickness/cm^2 area - mi; overall permeation rate ([2]; through positively charged polymers POLYMER LK and POLYMER LR-400 (FIG. 5I)): 5.8×10^−4
0.0003 mm/Hg | CCCCCCC(C=O)=Cc1ccccc1 [hexyl cinnamic aldehyde] | –
0.05 mm/Hg | C=CC(C)(O)CCC=C(C)C (stereo not drawn) [linalool] | –
0.009 mm/Hg | CCCCCCCCCC(C)C=O (stereo not drawn) [methyl nonyl acetaldehyde] | –
– | CCCCCCCC=O [n-octanal] | Permeation ([2]; not told): 2.8 × 10^−3 mg-mm thickness/cm^2 area - mi
0.1 mm/Hg | CC(=O)OC(C)c1ccccc1 (stereo not drawn) [styralyl acetate] | –
0.02 mm/Hg | CC1=CCC(C(C)(C)O)CC1 (stereo not drawn) [α-terpineol] | –
0.006 mm/Hg | CC(=O)/C=C/C1=C(C)CCCC1(C)C [β-ionone] | –
0.02 mm/Hg | OCCc1ccccc1 [β-phenyl ethyl alcohol] | –
– | C=C1CCC2CC1C2(C)C (stereo not drawn) [β-pinene] | Vapor Pressure ([1]; figure legends, unit inferred): 2.2 mmHg; permeation rate through hydroxypropyl cellulose [2]: 2.7×10^−4; permeation rate through polyvinyl alcohol [2]: about 1.8×10^−4; Permeation [2, 4]: 2.8 × 10^−3 mg-mm thickness/cm^2 area - mi; Permeation [2, 5]: 2.5 × 10^−3 mg-mm thickness/cm^2 area - mi; Permeation [2, 6]: 2 × 10^−3 mg-mm thickness/cm^2 area - mi; permeation rate ([2]; through POLYMER LK (FIG. 5K, graph 596)): 3.9×10^−5; permeation rate ([2]; through POLYMER LR-400 (FIG. 5K, graph 595)): 7.5×10^−5; evaporation rate without the polymer [3]: about 0.15
0.002 mm/Hg | peach aldehyde coeur | –

Compound | Vapor Pressure ([1]; at 25° C.) | also measured
CC(=O)c1cc2c(cc1C)C(C)(C)C(C)CC2(C)C (stereo not drawn) [TONALID ®] | 0.0001 mm/Hg | –
C=CC(C)(CCC=C(C)C)OC(C)=O (stereo not drawn) [linalyl acetate] | 0.07 mm/Hg | –
C=CCc1ccc(OC)cc1 [methyl chavicol] | 0.09 mm/Hg | –
